Patent US8410310B2, “Trypsin-like serine protease inhibitors, and their preparation and use” (The Medicines Company (Leipzig) GmbH, priority 2006, dated 2013)

Columns and labels:
Human factor Xa = target: T1, Human factor Xa (Homo sapiens, UniProt P00742); assay: Inhibition constants against purified human serine proteases: FXa; format: biochemical; conditions: for Ki: 50 mM Tris-HCl pH 8.0, 154 mM NaCl, Pefachrome FXa
T1 construct: Human factor Xa, factor XIa, factor XIIa, thrombin, and plasma kallikrein were purchased; purchased Enzyme Research Laboratories (via Haemochrom, Essen)
T1 sequence (P00742 235-488 limits assumed): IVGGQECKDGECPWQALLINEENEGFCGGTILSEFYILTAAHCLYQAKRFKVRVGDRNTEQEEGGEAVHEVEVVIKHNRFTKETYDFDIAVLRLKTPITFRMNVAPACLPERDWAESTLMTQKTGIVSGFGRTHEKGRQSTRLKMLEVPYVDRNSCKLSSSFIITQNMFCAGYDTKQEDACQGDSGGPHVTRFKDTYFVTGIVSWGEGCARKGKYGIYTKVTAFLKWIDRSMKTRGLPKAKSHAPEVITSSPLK
T1 sequence (P00742 41-179 partner limits assumed): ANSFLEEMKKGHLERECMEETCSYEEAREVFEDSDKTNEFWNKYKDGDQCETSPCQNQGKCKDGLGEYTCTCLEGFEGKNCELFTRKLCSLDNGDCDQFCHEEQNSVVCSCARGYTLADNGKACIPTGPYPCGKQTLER
Text: (§1) Aprotinin and tranexamic acid were purchased from SIGMA (Schnelldorf, Germany). Human factor Xa, factor XIa, factor XIIa, thrombin, and plasma kallikrein were purchased from Enzyme Research Laboratories, and human plasmin from Chromogenix (both via Haemochrom, Essen, Germany). Various synthetic peptide chromogenic substrates used for determination of inhibition constants were obtained from Pentapharm (Basel, Switzerland), Roche (Mannheim, Germany), and Chromogenix: Chromozyme PL for plasmin, S2302 for plasma kallikrein, Pefachrome FXa for factor Xa, Chromozym XII for FXIIa, Pefachrom tPA for thrombin, and Pefachrome PCa for factor XIa. Tissue-type plasminogen activator was obtained from Boehringer Ingelheim (Ingelheim, Germany). INTEM, EXTEM and STARTEM reagents and disposables for ROTEM® measurements were obtained from Pentapharm (Munich, Germany).
(§2) Inhibition of purified human serine proteases by Compound No. 3 and aprotinin was studied using the established methods described herein in Example 3 (i.e., Stürzebecher et al., 1997). Enzyme kinetic experiments were carried out in 96-well flat-bottom plates (Brand, Wertheim, Germany) in 50 mM Tris-HCl pH 8.0, 154 mM NaCl in the presence of different substrate and inhibitor concentrations. Steady-state velocities of substrate conversion were obtained from progress curves generated by continuous monitoring of the absorbance at 405 nm with a microplate reader (Multiskan Ascent, Thermo Electron Corporation, Dreieich, Germany). […] Inhibition constants (Ki) were calculated from non-linear fits of individual data sets to the Michaelis-Menten equation for competitive inhibitors using an enzyme kinetic analysis software (SIGMA Plot® 9.0 Enzyme Kinetics Module, SSI, San Jose, Calif.). Dixon plot analysis was applied to confirm the competitive inhibition mode.

[1] = tested on: t-PA-induced lysis of whole blood clots; assay: Whole blood fibrinolysis assay (ROTEM, EXTEM with t-PA); format: cell-based, human; conditions: for IC50: Ly60, read-out: concentration resulting in 50% suppression of clot lysis (IC50, median [25%; 75% percentile]); for potency at inhibiting clot lysis relative to tranexamic acid: whole blood and plasma clot lysis, versus tranexamic acid
Procedure: Venous blood was withdrawn from the antecubital vein from healthy volunteers after written informed consent in accordance with local and federal guidelines with approval of the local review board (Ethikkommission, Klinikum Charité, Sauerbruchweg 5, 10117 Berlin). The blood was mixed with 0.11 mol/L sodium citrate (1:10). For ROTEM® analysis, whole citrated blood was used within 8 h after collection. Platelet-rich plasma (PRP) was prepared from citrated blood by centrifugation at 330×g for 10 min at room temperature, platelet-poor plasma (PPP) was collected following centrifugation at 1220×g for 12 min. The PRP was then adjusted to 3×10^8 platelets per mL using the autologous PPP. PRP was maintained at room temperature for less than 4 h before analysis. The remaining PPP was subjected to a high-speed centrifugation at 40,000×g for 30 min at 4° C. to remove any particulate material and was then stored at −70° C. until use.
The antifibrinolytic activity of Compound No. 3 in comparison to aprotinin and tranexamic acid was investigated in plasma and whole blood assays. In both assays, tissue factor was added to initiate rapid clot formation via the extrinsic pathway which produces a clot that remains stable for several hours under normal conditions. Supplementation of plasma or whole blood with tissue-type plasminogen activator (t-PA) before stimulation results in activation of endogenous plasminogen and thus fibrinolysis while the initial clot formation is not impaired. […] A final concentration of 50 U/mL and 100 U/mL in plasma and whole blood, respectively, was chosen to achieve complete lysis within about 60 min. In the presence of antifibrinolytics, clot lysis is delayed in a concentration-dependent manner.
Fibrinolysis in whole blood was studied with rotational thromboelastometry (Luddington, Clin. Lab. Haematol. 27: 81-90, 2005) using a computerized, multi-channel ROTEM® instrument (Pentapharm, Munich, Germany) (Ganter et al., Anesth. Analg. 106: 1366-75, 2008). Activation of test samples accelerated the measurement process and enhanced reproducibility compared with conventional thromboelastography. To allow observation of fibrinolysis, ROTEM® analysis with tissue factor activation (EXTEM) was modified through addition of t-PA (Nielsen et al. Blood Coagul. Fibrinolysis 17: 75-81, 2006). Citrated blood was pre-incubated at 37° C. for 5 min with test compound or saline before tissue factor, CaCl2 and t-PA (100 U/mL final concentration) were added to start the reaction. Fibrinolysis was determined by measuring loss of clot strength with time and was recorded as Ly60 (percentage reduction of the maximum amplitude at 60 min after the onset of clotting). In control samples without inhibitor, clots were lysed completely within 60 min, such that Ly60 was above 90%. By plotting Ly60 versus test compound concentration, IC50 values for each compound were calculated.

[2] = tested on: coagulation in human plasma (PPP); assay: Plasma coagulation times (prothrombin time, activated partial thromboplastin time); format: biochemical; conditions: for plasma coagulation times (prothrombin time, activated partial thromboplastin time): 100 to 1000 nM
Text: Since Compound No. 3 inhibits multiple proteases of the coagulation system, we investigated possible anticoagulant properties using established tests in vitro. Whereas tissue factor is the physiologic trigger of coagulation, both extrinsic and contact-mediated stimulation contribute to hemostatic activation under conditions like CPB (Boisclair et al. Blood 82: 3350-7, 1993 and Edmunds et al., Ann. Thorac. Surg. 82: 2315-22, 2006). We therefore studied the impact of Compound No. 3 and aprotinin on coagulation in plasma and whole blood following both intrinsic and extrinsic stimulation. Tranexamic acid has no influence on other proteases than plasminogen and, therefore, is not included in these experiments.
Prothrombin time and activated partial thromboplastin time were determined after human plasma (PPP) was supplemented with test compound solution or saline using a conventional coagulation analyzer (Sysmex CA-560, Dade Behring). Reagents used were Innovin® (extrinsic activator containing tissue factor) for prothrombin time and Actin® FSL (contact activator containing ellagic acid and phospholipids) for activated partial thromboplastin time, both from Dade Behring (Eschborn, Germany).

Thrombin = Thrombin (Homo sapiens, UniProt P00734); assay: Inhibition constants against purified human serine proteases: thrombin; format: biochemical; parameters: Human factor Xa, factor XIa, factor XIIa, thrombin, and plasma kallikrein were purchased; purchased Enzyme Research Laboratories (via Haemochrom, Essen); conditions: 50 mM Tris-HCl pH 8.0, 154 mM NaCl, Pefachrom tPA
Text: as §1, with “Tissue-type plasminogen activator was obtained from Boehringer Ingelheim (Ingelheim, Germany). INTEM, EXTEM and STARTEM reagents and disposables for ROTEM® measurements were obtained from Pentapharm (Munich, Germany).” left out
as §2, with “Enzyme kinetic experiments were carried out in 96-well flat-bottom plates (Brand, Wertheim, Germany) in 50 mM Tris-HCl pH 8.0, 154 mM NaCl in the presence of different substrate and inhibitor concentrations.” left out, “Dixon plot analysis was applied to confirm the competitive inhibition mode.” left out

[3] = human whole blood, t-PA 100 U/mL
[4] = higher aprotinin concentrations (data not shown)

| IC50 of clot lysis expressed in KIU/mL ([1]; human whole blood, t-PA 100 U/mL, converted from nM) [KIU/mL] | Compound | Ki (Human factor Xa) [nM] | IC50 [1, 3] [nM] | potency at inhibiting clot lysis relative to tranexamic acid [1] [fold] | plasma coagulation times (prothrombin time, activated partial thromboplastin time) [2] | activated partial thromboplastin time [2, 4] | extrinsic coagulation [2, 4] | Ki (Thrombin) [nM] | stronger inhibition of FXa than aprotinin (Human factor Xa; versus aprotinin) [fold] | concentration that largely suppresses clot lysis / effective inhibition ([1]; whole blood ROTEM, t-PA-induced lysis) [nM] |
| --- | --- | --- | --- | --- | --- | --- | --- | --- | --- | --- |
| 16 | aprotinin | 55600 | 345 | ~10 | almost no influence | marked prolongation | not affected | 76000 |  |  |
|  | N=C(N)c1ccc(CNC(=O)[C@H](Cc2cccc(CN)c2)NC(=O)[C@@H](CCCc2ccccc2)NS(=O)(=O)Cc2cccc(C(=O)O)c2)cc1 [compound 3, 3-HOOC-Bzls-d-Ppg-Phe(3-Ame)-4-Amba×2 acetate] | 45 ± 5 | 150 | ~10 | significant prolongation |  |  | 1700 ± 200 | 1200 | 600 |
